The values below come from US20100120778A1, “QUINOXALINE-BASED LXR MODULATORS” (Wyeth, priority 2008, published 2010).

One test deals with T1, human LXRβ (Homo sapiens, UniProt P55055).
T1 construct: biotin (biotinylated); made in house; host or cells: E. coli
T1 sequence (P55055 1-460): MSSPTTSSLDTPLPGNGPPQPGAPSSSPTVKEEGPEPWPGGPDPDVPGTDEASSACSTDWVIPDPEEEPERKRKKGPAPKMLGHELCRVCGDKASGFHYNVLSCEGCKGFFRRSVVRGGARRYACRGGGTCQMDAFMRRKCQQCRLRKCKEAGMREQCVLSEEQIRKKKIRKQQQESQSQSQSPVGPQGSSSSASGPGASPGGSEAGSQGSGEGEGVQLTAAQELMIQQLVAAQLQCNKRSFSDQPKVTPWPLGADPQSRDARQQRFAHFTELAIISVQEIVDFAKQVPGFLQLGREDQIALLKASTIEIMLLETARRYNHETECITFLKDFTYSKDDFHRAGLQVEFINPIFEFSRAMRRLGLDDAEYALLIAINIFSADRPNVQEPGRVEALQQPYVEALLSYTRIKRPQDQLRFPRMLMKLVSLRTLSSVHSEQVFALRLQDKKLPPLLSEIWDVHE
The test is described as follows: Ligand-binding test procedure for human LXRβ (3H T0901317 tracer, flash plates). As to conditions: biotinylated hLXRβ, tracer 3H T0901317, +4° C. over night. As to the method: I. Ligand-Binding Test Procedure for Human LXRβ.
Receptor source: E. coli extracted from cells expressing biotinylated hLXRβ. Extract was made in a similar buffer as above, but with 50 mM TRIS.
Washed streptavidin and coated flash plates with wash buffer. Diluted receptor extract to give Bmax˜4000 cpm and add to the wells. Wrapped the plates in aluminum foil and stored them at +4° C. overnight.
(§1) Made a dilution series in DMSO of the test ligands. Made a 5 nM solution of the radioactive tracer in buffer. Mixed 250 μl diluted tracer with 5 μl of the test ligand from each concentration of the dilution series. Washed the receptor-coated flash plates. Added 200 μl per well of the ligand/radiolabel mixture to the receptor-coated flash plates. Wrapped the plates in aluminum foil and incubate at +4° C. over night.
Aspirated wells, and washed the flashed plates. Sealed the plate.
Measured the remaining radioactivity in the plate.

In a further test the target is T2, human LXRα (Homo sapiens, UniProt Q13133).
T2 construct: biotin (biotinylated); made in house; host or cells: E. coli
T2 sequence (Q13133 1-447): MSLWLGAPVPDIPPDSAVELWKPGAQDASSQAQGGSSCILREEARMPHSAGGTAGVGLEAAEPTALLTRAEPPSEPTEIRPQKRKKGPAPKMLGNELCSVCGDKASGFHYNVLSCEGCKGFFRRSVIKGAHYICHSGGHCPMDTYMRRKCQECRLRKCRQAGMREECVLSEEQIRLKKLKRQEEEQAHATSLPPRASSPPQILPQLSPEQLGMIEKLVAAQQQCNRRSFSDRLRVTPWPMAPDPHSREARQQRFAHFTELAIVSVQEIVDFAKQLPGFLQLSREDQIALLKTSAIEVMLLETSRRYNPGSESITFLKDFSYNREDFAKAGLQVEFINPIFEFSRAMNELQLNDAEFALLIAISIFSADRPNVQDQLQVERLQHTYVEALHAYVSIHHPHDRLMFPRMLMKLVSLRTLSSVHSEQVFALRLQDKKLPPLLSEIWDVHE
Nature of the test: Ligand-binding test procedure for human LXRα (3H T0901317 tracer, flash plates). The note with it: biotinylated hLXRα, tracer 3H T0901317, +4° C. over night. As to the method: II. Ligand-Binding Test Procedure for Human LXRα.
Receptor source: E. coli extract from cells expressing biotinylated hLXRα. Extract was made in a similar buffer as above, but with 50 mM TRIS.
Washed streptavidin and coated flash plates with wash buffer. Diluted receptor extract to give Bmax˜4000 cpm and add to the wells. Wrapped the plates in aluminum foil and stored them at +4° C. over night.
as §1
Aspirated wells, and wash the flashed plates. Sealed the plate. Measured the remaining radioactivity in the plate.

Consider `CS(=O)(=O)c1cccc(-c2ccc(Oc3cnc4c(Cl)cccc4n3)cc2)c1` [Example 79, 5-chloro-2-{[3′-(methylsulfonyl)biphenyl-4-yl]oxy}quinoxaline], for which the IC50 on human LXRβ and at human LXRα was > 1000 nM each time.

Regarding `Cc1nc2cccc(C(F)(F)F)c2nc1-c1ccc(Oc2cccc(S(C)(=O)=O)c2)cc1` [Example 7, 2-methyl-3-{4-[3-(methylsulfonyl)phenoxy]phenyl}-5-(trifluoromethyl)quinoxaline], the half-inhibitory concentration (IC50) is 1550 nM on human LXRβ and > 1000 nM at human LXRα.

As for `Cc1nc2c(C(F)(F)F)cccc2nc1-c1cc(Oc2cccc(S(=O)(=O)CCCO)c2)ccc1Cl` [Example 58, 3-[(3-{4-chloro-3-[3-methyl-5-(trifluoromethyl)quinoxalin-2-yl]phenoxy}phenyl)sulfonyl]-propan-1-ol], the figures for the IC50 on human LXRβ and on human LXRα were 63.5 nM and 810 nM, respectively.

Turning to `Cc1nc2cccc(C(F)(F)F)c2nc1-c1cc(Oc2cccc(S(=O)(=O)C(C)C)c2)ccc1Cl` [Example 62, 3-(2-chloro-5-{3-[(1-methylethyl)sulfonyl]phenoxy}phenyl)-2-methyl-5-(trifluoromethyl)quinoxaline], the results for the IC50 on human LXRβ and at human LXRα were 38 nM and 876 nM, respectively.

With `Cc1nc2cccc(C(F)(F)F)c2nc1-c1cc(Oc2cccc(S(C)(=O)=O)c2)ccc1Cl` [Example 37, 3-{2-chloro-5-[3-(methylsulfonyl)phenoxy]phenyl}-2-methyl-5-(trifluoromethyl)quinoxaline], the figures for the IC50 on human LXRβ and at human LXRα were 37 nM and 557 nM, respectively.

For `Cc1nc2cccc(C(F)(F)F)c2nc1-c1ccc(-c2cncc(S(C)(=O)=O)c2)cc1` [Example 73, 2-methyl-3-{4-[5-(methylsulfonyl)pyridin-3-yl]phenyl}-5-(trifluoromethyl)quinoxaline], the IC50 on human LXRβ was 123 nM; at human LXRα it was > 1000 nM.

On to `Cc1nc2cccc(C(F)(F)F)c2nc1-c1ccc(-c2cccc(S(C)(=O)=O)c2)cc1` [Example 4, 2-methyl-3-[3′-(methylsulfonyl)biphenyl-4-yl]-5-(trifluoromethyl)quinoxaline], for which the half-inhibitory concentration (IC50) on human LXRβ was 373 nM; at human LXRα it was > 1000 nM.

For `Cc1nc2cccc(C#N)c2nc1-c1ccc(-c2cccc(S(C)(=O)=O)c2)cc1` [Example 72, 2-methyl-3-[3′-(methylsulfonyl)biphenyl-4-yl]quinoxaline-5-carbonitrile], the values for the IC50 at human LXRβ and at human LXRα were 3020 nM and > 1000 nM, respectively.

With `Cc1nc2c(Cl)cccc2nc1Oc1ccc(-c2cccc(NS(C)(=O)=O)c2)cc1` [Example 93, N-{4′-[(5-chloro-3-methylquinoxalin-2-yl)oxy]biphenyl-3-yl}methanesulfonamide], the half-maximal inhibitory concentration (IC50) is 869 nM on human LXRβ and 3530 nM on human LXRα.

Consider `Cc1nc2c(Cl)cccc2nc1Oc1cccc(-c2cccc(S(C)(=O)=O)c2)c1` [Example 80, 5-chloro-3-methyl-2-{[3′-(methylsulfonyl)biphenyl-3-yl]oxy}quinoxaline], for which the IC50 on human LXRβ was 108 nM; on human LXRα, 818 nM.

Regarding `Cc1nc2c(C(F)(F)F)cccc2nc1-c1ccc(Oc2cccc(S(C)(=O)=O)c2)cc1` [Example 12, 3-methyl-2-{4-[3-(methylsulfonyl)phenoxy]phenyl}-5-(trifluoromethyl)quinoxaline], the IC50 is 6400 nM on human LXRβ and > 1000 nM at human LXRα.

Consider `Cc1nc2c(C(F)(F)F)cccc2nc1-c1cc(Oc2ccccc2S(C)(=O)=O)ccc1Cl` [Example 46, 2-{2-chloro-5-[2-(methylsulfonyl)phenoxy]phenyl}-3-methyl-5-(trifluoromethyl)quinoxaline], for which the values for the concentration for half-maximal inhibition (IC50) on human LXRβ and at human LXRα were 1460 nM and 1620 nM, respectively.

Take `Cc1nc2cccc(C(F)(F)F)c2nc1-c1ccc(-c2cccc(S(C)(=O)=O)c2)cc1F` [Example 6, 3-[3-fluoro-3′-(methylsulfonyl)biphenyl-4-yl]-2-methyl-5-(trifluoromethyl)quinoxaline]: the IC50 was 398 nM at human LXRβ and > 1000 nM on human LXRα.

As for `CNS(=O)(=O)c1cccc(-c2cccc(Oc3nc4cccc(Cl)c4nc3C)c2)c1` [Example 88, 3′-[(5-chloro-3-methylquinoxalin-2-yl)oxy]-N-methylbiphenyl-3-sulfonamide], at human LXRβ, the IC50 is > 1000 nM.

For the compound `Cc1nc2c(C(F)(F)F)cccc2nc1-c1ccc(-c2ccc(CCC(=O)O)cc2)cc1` [Example 55, 3-{4′-[3-methyl-5-(trifluoromethyl)quinoxalin-2-yl]biphenyl-4-yl}propanoic acid], on human LXRβ, the IC50 was > 1000 nM.

In the case of `Cc1nc2cccc(C(F)(F)F)c2nc1-c1cc(Oc2ccc(S(C)(=O)=O)cc2)ccc1Cl` [Example 39, 3-{2-chloro-5-[4-(methylsulfonyl)phenoxy]phenyl}-2-methyl-5-(trifluoromethyl)quinoxaline], the IC50 at human LXRβ was > 1000 nM.

Consider `CS(=O)(=O)c1cccc(-c2ccc(-c3nc4ccccc4nc3C(F)(F)F)cc2)c1` [Example 26, 2-[3′-(methylsulfonyl)biphenyl-4-yl]-3-(trifluoromethyl)quinoxaline], for which the 50% inhibitory concentration (IC50) at human LXRβ was > 1000 nM.

For `Cc1nc2c(C(F)(F)F)cccc2nc1-c1ccc(-c2ccc(S(C)(=O)=O)cc2)cc1` [Example 18, 3-methyl-2-[4′-(methylsulfonyl)biphenyl-4-yl]-5-(trifluoromethyl)quinoxaline], the IC50 on human LXRβ is > 1000 nM.

Take `CS(=O)(=O)c1ccccc1-c1ccc(-c2cnc3cccc(C(F)(F)F)c3n2)cc1` [Example 24, 2-[2′-(methylsulfonyl)biphenyl-4-yl]-8-(trifluoromethyl)quinoxaline]: at human LXRβ, the IC50 is > 1000 nM.

Turning to `CS(=O)(=O)Nc1cccc(-c2cccc(Oc3cnc4c(Cl)cccc4n3)c2)c1` [Example 85, N-{3′-[(5-Chloroquinoxalin-2-yl)oxy]biphenyl-3-yl}methanesulfonamide], the IC50 on human LXRβ stood at 257 nM.

In the case of `Cc1nc2c(C(F)(F)F)cccc2nc1-c1cccc(-c2cccc(S(C)(=O)=O)c2)c1` [Example 19, 3-methyl-2-[3′-(methylsulfonyl)biphenyl-3-yl]-5-(trifluoromethyl)quinoxaline], the half-maximal inhibitory concentration (IC50) on human LXRβ is > 1000 nM.

As to `COc1cccc2nc(-c3ccc(-c4cccc(S(C)(=O)=O)c4)cc3)c(C)nc12` [Example 70, 5-methoxy-3-methyl-2-[3′-(methylsulfonyl)biphenyl-4-yl]quinoxaline], the IC50 on human LXRα is > 1000 nM.

Regarding `Cc1nc2c(C#N)cccc2nc1-c1ccc(-c2cccc(S(C)(=O)=O)c2)cc1` [Example 71, 3-methyl-2-[3′-(methylsulfonyl)biphenyl-4-yl]quinoxaline-5-carbonitrile], at human LXRα, the 50% inhibitory concentration (IC50) is > 1000 nM.

For `CS(=O)(=O)c1cccc(-c2ccc(-c3nc4cccc(C(F)(F)F)c4nc3N)cc2)c1` [Example 33, 3-[3′-(methylsulfonyl)biphenyl-4-yl]-8-(trifluoromethyl)quinoxalin-2-amine], the half-maximal inhibitory concentration (IC50) at human LXRβ was determined as 723 nM.

Consider `CCS(=O)(=O)c1cccc(Oc2ccc(-c3nc4c(C(F)(F)F)cccc4nc3C)cc2)c1` [Example 15, 3-{4-[3-(ethylsulfonyl)phenoxy]phenyl}-2-methyl-5-(trifluoromethyl)quinoxaline], for which, at human LXRβ, the IC50 is > 1000 nM.

Consider `CC(C)CS(=O)(=O)c1cccc(Oc2cccc(-c3cnc4cccc(C(F)(F)F)c4n3)c2)c1` [Example 17, 2-{3-[3-(isobutylsulfonyl)phenoxy]phenyl}-8-(trifluoromethyl)quinoxaline], for which the IC50 at human LXRβ is > 1000 nM.
